Measurements: patent US20210322327A1, “EXTRACELLULAR VESICLES COMPRISING STING-AGONIST” (Codiak BioSciences, Inc., priority 2018, published 2021)

Columns and labels:
B16F10 cells = assay: B16F10 re-challenge on the opposite flank; type: in vivo, C57BL/6 mice; details: 20 μg group, re-challenged day 21, read day 39
Excerpt: STING pathway activation leads to memory T-cell recruitment and ultimately a durable adaptive immune response. To determine whether the anti-tumor effects in this study led to an immune response, the five animals in the high dose STING agonist and Exo STING groups were re-challenged on day 21 by transplantation of 5×10^5 B16F10 cells on the opposite flank. Five additional naïve mice were inoculated with the same tumor cell preparation and treated daily with PBS to ensure cell viability and growth kinetics. By day 39 (18 days post-challenge) all mice in the PBS group were sacrificed.

A20 lymphoma cells = assay: CIVO intratumoral microinjection, IFNβ mRNA by in situ hybridization; type: in vivo, BALB/cAnNHsd mice; details: high dose free (printed 2 g), four hours post-injection
Protocol: All experiments in mice were approved by IACUC Board of Presage Biosciences, Seattle, Wash. (Protocol number PR-001) and were performed at Presage in accordance with relevant guidelines and regulations. All relevant procedures were performed under anesthesia and all efforts were made to minimize pain and suffering. Female BALB/cAnNHsd mice (Envigo) with an average weight of 18 gm were used for experiments at 5-7 weeks of age. For generating A20 allografts, mice were inoculated with 1 million A20 cells in 100 μl inoculation volume.
CIVO intra-tumoral microinjections were performed as described in Klinghoffer et al. (2016) Science Translational Medicine. Briefly, mice (n=6 per time point, 4 and 24 hours) were enrolled in microinjection studies when implanted tumors reached the following approximate dimensions: 14 mm (length), 10 mm (width) and 7 mm (depth). […]
Images of every cell from each tissue section stained were captured by digital, automated, high-resolution whole-tissue scanning (3D Histech Panoramic 250 Flash). Tumor responses were quantified from image files from each tissue section using Presage's custom CIVO Analyzer image analysis platform. […] In order to mitigate the influence of pre-existing necrosis on biomarker measurements, injection sites that fall within largely acellular tumor regions are excluded prior to quantitative analysis. […]

Compound: Nc1ncnc2c1ncn2[C@@H]1O[C@@H]2COP(O)(=S)O[C@@H]3C(O)[C@@H](COP(O)(=S)O[C@H]2[C@H]1O)O[C@H]3n1cnc2c(N)ncnc21 (some centres unmarked) [ML RR-S2 CDA]
- animals in which re-challenge tumors failed to grow (B16F10 cells): four out of 5
- IFNβ mRNA levels (A20 lymphoma cells): comparable between the high dose STING agonist and the PTGFRN O/E EXOSTING™ groups
